According to patent publication US20040156869A1, “2-substituted quinazolin-4-ylamine analogues” (Neurogen Corporation, priority 2002, published 2004):

Biological target: human capsaicin receptor (VR1) (Homo sapiens, UniProt Q8NER1)
Test: Capsaicin receptor binding assay ([3H]RTX competition, VR1-transfected HEK293 membranes)
Settings: not given

Sequence of human capsaicin receptor (VR1) (Q8NER1 whole entry): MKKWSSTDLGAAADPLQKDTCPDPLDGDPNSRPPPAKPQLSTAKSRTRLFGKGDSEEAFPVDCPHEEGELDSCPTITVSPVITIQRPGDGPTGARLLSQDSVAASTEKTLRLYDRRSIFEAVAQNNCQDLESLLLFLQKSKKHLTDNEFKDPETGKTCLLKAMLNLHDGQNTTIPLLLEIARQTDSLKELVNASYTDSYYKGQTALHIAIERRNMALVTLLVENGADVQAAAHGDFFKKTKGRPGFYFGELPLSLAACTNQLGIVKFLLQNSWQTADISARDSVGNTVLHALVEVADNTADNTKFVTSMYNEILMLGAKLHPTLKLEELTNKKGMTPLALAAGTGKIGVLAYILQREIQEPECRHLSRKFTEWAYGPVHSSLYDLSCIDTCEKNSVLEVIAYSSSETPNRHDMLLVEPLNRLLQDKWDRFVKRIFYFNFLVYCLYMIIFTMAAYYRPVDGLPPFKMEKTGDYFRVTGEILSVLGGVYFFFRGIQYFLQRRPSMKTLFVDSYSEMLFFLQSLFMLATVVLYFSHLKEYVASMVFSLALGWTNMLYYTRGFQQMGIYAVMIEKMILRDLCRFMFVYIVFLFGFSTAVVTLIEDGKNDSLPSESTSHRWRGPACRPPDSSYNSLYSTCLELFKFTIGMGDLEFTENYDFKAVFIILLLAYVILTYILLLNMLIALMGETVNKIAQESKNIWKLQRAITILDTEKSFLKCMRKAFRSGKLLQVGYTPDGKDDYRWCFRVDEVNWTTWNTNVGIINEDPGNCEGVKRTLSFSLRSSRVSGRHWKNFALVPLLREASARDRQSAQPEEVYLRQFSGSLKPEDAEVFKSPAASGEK

Ki, < 1 µM:
COCc1nc(Nc2ccc(C(C)(C)C(C)=O)cc2)c2ccc(-c3ncccc3Cl)nc2n1 [Compound 213, 3-{4-[7-(3-Chloro-pyridin-2-yl)-2-methoxymethyl-pyrido[2,3-d]pyrimidin-4-ylamino]-phenyl}-3-methyl-butan-2-one]
COCc1nc(Nc2ccc(S(=O)(=O)N3CCOCC3)cc2)c2ccc(-c3ncccc3C(F)(F)F)cc2n1 [Compound 126, [2-Methoxymethyl-7-(3-trifluoromethyl-pyridin-2-yl)-quinazolin-4-yl]-[4-(morpholine-4-sulfonyl)-phenyl]-amine]
COCc1nc(Nc2ccc(C(F)(F)F)nc2)c2ncc(-c3ncccc3C(F)(F)F)cc2n1 [Compound 53, [2-Methoxymethyl-7-(3-trifluoromethyl-pyridin-2-yl)-pyrido[3,2-d]pyrimidin-4-yl]-(6-trifluoromethyl-pyridin-3-yl)-amine]
COCc1nc(Nc2ccc(C3CCCC3)cc2)c2ccc(-c3ncccc3C(F)(F)F)nc2n1 [Compound 110, (4-Cyclopentyl-phenyl)-[2-methoxymethyl-7-(3-trifluoromethyl-pyridin-2-yl)-pyrido[2,3-d]pyrimidin-4-yl]-amine]
COCc1nc(Nc2ccc(Cl)c(C)c2)c2ccc(-c3ncccc3C(F)(F)F)nc2n1 [Compound 293, (4-Chloro-3-methyl-phenyl)-[2-methoxymethyl-7-(3-trifluoromethyl-pyridin-2-yl)-pyrido[2,3-d]pyrimidin-4-yl]-amine]
CCN(Cc1cc(Nc2ccc(C(F)(F)F)cc2)c2ccc(-c3ncccc3C(F)(F)F)nc2n1)C1CCCCC1 [Compound 813, [2-[(Cyclohexyl-ethyl-amino)-methyl]-7-(3-trifluoromethyl-pyridin-2-yl)-[1,8]naphthyridin-4-yl]-(4-trifluoromethyl-phenyl)-amine]
CC(C)OCc1nc(Nc2ccc(S(N)(=O)=O)cc2)c2ccc(-c3ncccc3Cl)nc2n1 [Compound 279, 4-{7-(3-Chloro-pyridin-2-yl)-2-isopropoxymethyl-pyrido[2,3-d]pyrimidin-4-ylamino]-benzenesulfonamide]
O=C(O)CNC(=O)c1nc(Nc2ccc(C(F)(F)F)cc2)c2ccc(-c3ncccc3C(F)(F)F)nc2n1 [Compound 764, {[4-(4-Trifluoromethyl-phenylamino)-7-(3-trifluoromethyl-pyridrn-2-yl)-pyrido[2,3-d]pyrimidine-2-carbonyl]-amino}-acetic acid]
O=C(NCCCN1CCCC1)c1nc(Nc2ccc(C(F)(F)F)cc2)c2ccc(-c3ncccc3C(F)(F)F)nc2n1 [Compound 432, 4-(4-Trifluoromethyl-phenylamino)-7-(3-trifluoromethyl-pyridin-2-yl)-pyrido[2,3-d]pyrimidine-2-carboxylic acid (3-pyrrolidin-1-yl-propyl)-amide]
OC1CCCN(CCCc2nc(Nc3ccc(C(F)(F)F)cc3)c3ccc(-c4ncccc4C(F)(F)F)cc3n2)C1 (centres unmarked) [Compound 571, 1-{3-[4-(4-Trifluoromethyl-phenylamino)-7-(3-trifluoromethyl-pyridin-2-yl)-quinazolin-2-yl]-propyl}piperidin-3-ol]
CC(C)COCc1nc(Nc2cccc(Cl)c2)c2ccc(-c3ncccc3C(F)(F)F)nc2n1 [Compound 271, (3-Chloro-phenyl)-[2-isobutoxymethyl-7-(3-trifluoromethyl-pyridin-2-yl)-pyrido[2,3-d]pyrimidin-4-yl]-amine]
CC(C)c1ccc(Nc2nc(COC3CCOCC3)nc3cc(-c4ncccc4Cl)ccc23)cc1 [Compound 103, [7-(3-Chloro-pyridin-2-yl)-2-(tetrahydro-pyran-4-yloxymethyl)-quinazolin-4-yl]-(4-isopropyl-phenyl)-amine]
CC(C)(C)c1ccc(Nc2nc(CN3CCCC3CO)nc3cc(-c4ncccc4C(F)(F)F)ccc23)cc1 (centres unmarked) [Compound 755, {1-[4-(4-tert-Butyl-phenylamino)-7-(3-trifluoromethyl-pyridin-2-yl)-quinazolin-2-ylmethyl]-pyrrolidin-2-yl}-methanol]
CC(C)S(=O)(=O)c1ccc(Nc2nc(CN3C[C@@H](C)O[C@H](C)C3)nc3cc(-c4ncccc4Cl)ccc23)cc1 [Compound 631, (R,R)-[7-(3-Chloro-pyridin-2-yl)-2-(2,6-dimethyl-morpholin-4-ylmethyl)-quinazolin-4-yl]-[4-(propane-2-sulfonyl)-phenyl]-amine]
OCCN1CCN(Cc2nc(Nc3ccc(C(F)(F)F)nc3)c3ccc(-c4ncccc4C(F)(F)F)cc3n2)CC1 [Compound 492, 2-{4-[7-(3-Trifluoromethyl-pyridin-2-yl)-4-(6-trifluoromethyl-pyridin-3-ylamino)-quinazolin-2-ylmethyl]-piperazin-1-yl}-ethanol]
CCOCCNC(=O)c1nc(Nc2ccc(C(F)(F)F)cc2)c2ccc(-c3ncccc3C(F)(F)F)nc2n1 [Compound 454, 4-(4-Trifluoromethyl-phenylamino)-7-(3-trifluoromethyl-pyridin-2-yl)-pyrido[2,3-d]pyrimidine-2-carboxylic acid (2-ethoxy-ethyl)-amide]
C[C@H]1CN(Cc2nc(Nc3ccc(C(F)(F)F)nc3)c3ccc(-c4ncccc4Cl)cc3n2)C[C@H](C)O1 [Compound 608, (S,S)-[7-(3-Chloro-pyridin-2-yl)-2-(2,6-dimethyl-morpholin-4-ylmethyl)-quinazolin-4-yl]-(6-trifluoromethyl-pyridin-3-yl)-amine]
COCc1nc(Nc2ccc(C(C)(C)C)nc2)c2ccc(-c3ncccc3C)nc2n1 [Compound 200, (6-tert-Butyl-pyridin-3-yl)-[2-methoxymethyl-7-(3-methyl-pyridin-2-yl)-pyrido[2,3-d]pyrimidin-4-yl]-amine]
O=S(=O)(c1ccc(Nc2nc(COC3CCCC3)nc3cc(-c4ncccc4C(F)(F)F)ccc23)cc1)N1CCOCC1 [Compound 143, [2-Cyclopentyloxymethyl-7-(3-trifluoromethyl-pyridin-2-yl)-quinazolin-4-yl]-[4-(morpholine-4-sulfonyl)-phenyl]-amine]
COCc1nc(Nc2ccc(C(C)(C)C)nc2)c2ccc(-c3ncccc3Cl)cc2n1 [Compound 68, (6-tert-Butyl-pyridin-3-yl)-[7-(3-chloro-pyridin-2-yl)-2-methoxymethyl-quinazolin-4-yl]-amine]
O=S(=O)(c1ccc(Nc2nc(COCc3ccccc3)nc3cc(-c4ncccc4C(F)(F)F)ccc23)cc1)C(F)(F)F [Compound 28, [2-Benzyloxymethyl-7-(3-trifluoromethyl-pyridin-2-yl)-quinazolin-4-yl]-(4-trifluoromethanesulfonyl-phenyl)-amine]
C[C@@H]1CN(Cc2nc(Nc3ccc(C(F)(F)F)cc3)c3ccc(-c4ccccn4)cc3n2)C[C@H](C)O1 [Compound 619, [2-(2,6-Dimethyl-morpholin-4-ylmethyl)-7-pyridin-2-yl-quinazolin-4-yl]-(4-trifluoromethyl-phenyl)-amine (cis)]

Same assay, conditions: Table III; * = Ki 1 micromolar or less

Ki, < 1 µM:
CCOC(=O)C1CCN(CCc2nc(Nc3ccc(C(F)(F)F)cc3)c3ccc(-c4ncccc4C(F)(F)F)cc3n2)CC1 [Compound 736, 1-{2-[4-(4-Trifluoromethyl-phenylamino)-7-(3-trifluoromethyl-pyridin-2-yl)-quinazolin-2-yl]-ethyl}-piperidine-4-carboxylic acid ethyl ester]
